According to patent US9907859B2 (priority 2010, dated 2018):
Values after ≈ are worked out from the molar mass of the structure shown. Like-named read-outs stand apart in the source and are kept apart here.

How the values were obtained:
physchem [1] = conditions: 37 °C, aqueous with cosolvent or surfactant or cyclodextrin, range of ST-246 solubilized by cyclodextrin
in vivo [2] = conditions: both, cynomolgus monkey, po; for AUC(0-inf): AUCINF—obs
[3] = cynomolgus monkey, in vivo
physchem [4] = conditions: 70 °C, aqueous with cosolvent or surfactant or cyclodextrin
physchem [5] = conditions: aqueous with cosolvent or surfactant or cyclodextrin
cowpox virus (CV) = conditions: in vitro, read-out: 50% effective concentration [EC50], inhibition of virus replication; cited from earlier work
CV = conditions: in vivo; cited from earlier work
[6] = mouse, in vivo; for AUC0-24: po, 300 mg/kg
in vivo [7] = conditions: female; for AUC(0-t) / Cmax / half-life / clearance: iv

With `O=C(NN1C(=O)C2C3C=CC(C4CC34)C2C1=O)c1ccc(C(F)(F)F)cc1` (stereo not shown) [ST-246, 4-trifluoromethyl-N-(3,3a,4,4a,5,5a,6,6a-octahydro-1,3-dioxo-4,6-ethenocycloprop[f]isoindol-2(1H)-yl)-benzamide] as the compound, how does the solubility (physchem [1]) read?
Its solubility is 1.5 to 11 mg/mL (≈ 3.99 to 29.2 mM).

What about the CL/F (in vivo [2]; 0.3 mg/kg) of the same compound?
The CL/F was 15.3 mL/min/kg.

And the Tmax (in vivo [2]; 0.3 mg/kg)?
Its Tmax is 2.5 h.

And the half-life (in vivo [2]; 0.3 mg/kg)?
Its half-life is 4 ± 1.3 h.

And the AUC(0-inf) (in vivo [2]; 0.3 mg/kg)?
The AUC(0-inf) was 380 ± 149 ng·h/mL.

And the Cmax (in vivo [2]; 0.3 mg/kg)?
Its Cmax is 53.8 ± 27.5 ng/mL.

And the AUC(0-t) (in vivo [2]; 3 mg/kg)?
The AUC(0-t) was 3860 ± 862 ng·h/mL.

And the CL/F (in vivo [2]; 3 mg/kg)?
The CL/F was 11.2 mL/min/kg.

And the Tmax (in vivo [2]; 3 mg/kg)?
The Tmax was 3.3 h.

And the half-life (in vivo [2]; 3 mg/kg)?
Its half-life is 9.9 ± 6 h.

And the AUC(0-inf) (in vivo [2]; 3 mg/kg)?
The AUC(0-inf) was 4530 ± 490 ng·h/mL.

And the Cmax (in vivo [2]; 3 mg/kg)?
The Cmax was 496 ± 145 ng/mL.

What about the AUC(0-t) (in vivo [2]; 10 mg/kg) of the same compound?
The AUC(0-t) was 10300 ± 3060 ng·h/mL.

And the CL/F (in vivo [2]; 10 mg/kg)?
Its CL/F is 15.3 mL/min/kg.

And the Tmax (in vivo [2]; 10 mg/kg)?
The Tmax was 3.8 h.

What about the half-life (in vivo [2]; 10 mg/kg) of the same compound?
The half-life was 7 ± 0.9 h.

And the AUC(0-inf) (in vivo [2]; 10 mg/kg)?
Its AUC(0-inf) is 11800 ± 3670 ng·h/mL.

And the Cmax (in vivo [2]; 10 mg/kg)?
Its Cmax is 1080 ± 279 ng/mL.

And the AUC(0-t) (in vivo [2]; 20 mg/kg)?
The AUC(0-t) was 13400 ± 8020 ng·h/mL.

What about the CL/F (in vivo [2]; 20 mg/kg) of the same compound?
Its CL/F is 20.1 mL/min/kg.

What about the Tmax (in vivo [2]; 20 mg/kg) of the same compound?
The Tmax was 3.2 h.

And the half-life (in vivo [2]; 20 mg/kg)?
Its half-life is 7.2 ± 2.3 h.

And the AUC(0-inf) (in vivo [2]; 20 mg/kg)?
Its AUC(0-inf) is 15500 ± 9150 ng·h/mL.

And the Cmax (in vivo [2]; 20 mg/kg)?
The Cmax was 1480 ± 864 ng/mL.

What about the AUC(0-t) (in vivo [2]; 30 mg/kg) of the same compound?
Its AUC(0-t) is 20500 ± 8050 ng·h/mL.

And the CL/F (in vivo [2]; 30 mg/kg)?
The CL/F was 16.5 mL/min/kg.

What about the Tmax (in vivo [2]; 30 mg/kg) of the same compound?
Its Tmax is 3.6 h.

What about the half-life (in vivo [2]; 30 mg/kg) of the same compound?
The half-life was 17.7 ± 13.8 h.

What about the AUC(0-inf) (in vivo [2]; 30 mg/kg) of the same compound?
Its AUC(0-inf) is 31900 ± 7360 ng·h/mL.

And the Cmax (in vivo [2]; 30 mg/kg)?
Its Cmax is 1990 ± 873 ng/mL.

And the “onset of tremors after end of infusion” value ([3]; both, 30 mg/kg)?
Its value is ≤ 13 min.

What about the “resolution of tremors after end of infusion” value ([3]; both, 30 mg/kg) of the same compound?
The value was “approximately 2 hours”.

What about the clinical signs [3] of the same compound?
The clinical signs was “no clinical signs were observed”.

What about the clinical signs ([3]; 20 mg/kg) of the same compound?
The clinical signs was “Tremors were not observed”.

And the solubility (physchem [4])?
Its solubility is 21.2 mg/mL (≈ 56.4 mM).

What about the solubility (physchem [5]; 4 °C, Solubility of ST-246, 4 ° C.) of the same compound?
The solubility was 6.29 mg/mL (≈ 16.7 mM).

What about the solubility (physchem [5]; 25 °C, Solubility of ST-246, 25 ° C.) of the same compound?
Its solubility is 7.57 mg/mL (≈ 20.1 mM).

And the solubility (physchem [5]; 40 °C, Solubility of ST-246, 40 ° C.)?
Its solubility is 11.2 mg/mL (≈ 29.7 mM).

And the solubility (physchem [5]; 60 °C, Solubility of ST-246, 60 ° C.)?
The solubility was 16.2 mg/mL (≈ 43.2 mM).

And the EC50 (cowpox virus (CV))?
The EC50 was ≤ 70 nM.

What about the “preventing or reducing mortality” value (CV) of the same compound?
The value was “highly effective in preventing or reducing mortality”.

What about the “toxicity in animal model” value (CV) of the same compound?
Its value is “nontoxic”.

And the “increase of apparent clearance after oral dosing” value ([6]; female, BALB/c)?
Its value is “approximately 10 fold”.

And the AUC0-24 ([6]; female)?
Its AUC0-24 is 688685 ng·h/mL.

What about the AUC0-24 ([6]; male) of the same compound?
Its AUC0-24 is 669961 ng·h/mL.

And the bioavailability (in vivo [7]; BALB/c (oral), CD-1 (IV), mouse, 30 mg/kg)?
Its bioavailability is ~41%.

And the AUC(0-t) (in vivo [7]; BALB/c, mouse, 2.3 mg/kg, AUC0-24)?
Its AUC(0-t) is 87800 ng·h/mL.

And the Cmax (in vivo [7]; BALB/c, mouse, 2.3 mg/kg)?
The Cmax was 22400 ng/mL.

What about the AUC(0-t) (in vivo [7]; BALB/c, mouse, 3 mg/kg, AUC0-24) of the same compound?
The AUC(0-t) was 100000 ng·h/mL.

What about the Cmax (in vivo [7]; BALB/c, mouse, 3 mg/kg) of the same compound?
Its Cmax is 78400 ng/mL.

What about the AUC(0-t) (in vivo [7]; BALB/c, mouse, 7.6 mg/kg, AUC0-24) of the same compound?
Its AUC(0-t) is 218000 ng·h/mL.

What about the Cmax (in vivo [7]; BALB/c, mouse, 7.6 mg/kg) of the same compound?
The Cmax was 37600 ng/mL.

And the AUC(0-t) (in vivo [7]; BALB/c, mouse, 30 mg/kg, AUC0-24)?
The AUC(0-t) was 300000 ng·h/mL.

And the Cmax (in vivo [7]; BALB/c, mouse, 30 mg/kg)?
Its Cmax is 149000 ng/mL.

And the AUC(0-t) (in vivo [7]; BALB/c, mouse, 34.3 mg/kg, AUC0-24)?
Its AUC(0-t) is 873000 ng·h/mL.

What about the Cmax (in vivo [7]; BALB/c, mouse, 34.3 mg/kg) of the same compound?
The Cmax was 162000 ng/mL.

What about the half-life (in vivo [7]; CD-1, mouse) of the same compound?
Its half-life is 2.5 to 4.5 h.

What about the clearance (in vivo [7]; CD-1, mouse, 3 mg/kg) of the same compound?
Its clearance is 0.717 mL/min/kg.

And the half-life (in vivo [7]; CD-1, mouse, 3 mg/kg)?
The half-life was 4.5 h.

What about the AUC(0-t) (in vivo [7]; CD-1, mouse, 3 mg/kg, AUC0-24) of the same compound?
The AUC(0-t) was 67900 ng·h/mL.

What about the AUC(0-t) (in vivo [7]; CD-1, mouse, 3 mg/kg, AUC0-24 hr) of the same compound?
Its AUC(0-t) is 68000 ng·h/mL.

What about the Cmax (in vivo [7]; CD-1, mouse, 3 mg/kg) of the same compound?
Its Cmax is 16700 ng/mL.

And the clearance (in vivo [7]; CD-1, mouse, 10 mg/kg)?
Its clearance is 0.417 mL/min/kg.

And the half-life (in vivo [7]; CD-1, mouse, 10 mg/kg)?
The half-life was 2.8 h.

What about the AUC(0-t) (in vivo [7]; CD-1, mouse, 10 mg/kg, AUC0-24) of the same compound?
The AUC(0-t) was 408000 ng·h/mL.

What about the AUC(0-t) (in vivo [7]; CD-1, mouse, 10 mg/kg, AUC0-24 hr) of the same compound?
Its AUC(0-t) is 408000 ng·h/mL.

And the Cmax (in vivo [7]; CD-1, mouse, 10 mg/kg)?
Its Cmax is 63500 ng/mL.

What about the clearance (in vivo [7]; CD-1, mouse, 30 mg/kg) of the same compound?
Its clearance is 0.7 mL/min/kg.

And the half-life (in vivo [7]; CD-1, mouse, 30 mg/kg)?
The half-life was 2.5 h.

And the AUC(0-t) (in vivo [7]; CD-1, mouse, 30 mg/kg, AUC0-24)?
Its AUC(0-t) is 709000 ng·h/mL.
